One series is described as follows: in vivo. To be noted: rat; for AUC / Cmax / level at 0.25 h / level at 0.5 h / level at 1 h / level at 2 h: female; for level at 0.25 h / level at 0.5 h / level at 1 h / level at 2 h: 2.5 mg. The source says: The effect of C-terminal amidation on the absorption of luteinizing hormone-releasing hormone (LHRH-NH2) from the duodenum of anesthetized rats was examined. In this study the absorption characteristics of LHRH-NH2, a naturally occurring C-terminal amidated decapeptide were compared with that of LHRH-COOH, a decapeptide with the same amino acid sequence as that of LHRH-NH2 except that the C-terminal amino acid of LHRH-COOH is gly-COOH instead of gly-NH2. Twelve female rats were anesthetized and implanted with a cannula in the carotid artery for taking blood samples at various times. Six rats were injected in the duodenum through a 27 gauge needle with 0.5 mL of LHRH-NH2 (5 mg/mL) in 0.5M citric acid and lauroylcarnitine (10 mg/mL) and six rats with injected in the duodenum with 0.5 mL LHRH-COOH) (5 mg/mL) in the same formulation. Samples of blood were taken prior to the administration of formulated LHRH-NH2 or LHRH-COOH and at 5, 15, 30, 60, and 120 minutes after peptide administration. The resulting plasma samples were analyzed for LHRH-NH2 or LHRH-COOH by high performance liquid chromatography equipped with a fluorescence detector to measure the concentration of peptide in plasma.

The conditions of series [1]: cited from earlier work.
A short description of series [2]: Blood levels of salmon calcitonin after direct injection into duodenum, ileum or colon of rats. The series is classed as in vivo. Conditions: active components injected directly into duodenum. The text has this:
The acid is believed to lower the local intestinal pH (where the active agent has been released) to levels below the optimal range for many intestinal proteases and other intestinal enzymes. This decrease in pH reduces the proteolytic activity of the intestinal proteases, thus affording protection to the peptide and the membrane translocator from potential degradation. The activity of these proteases is diminished by the temporarily acidic environment provided by the invention. It is preferred that sufficient acid be provided that local intestinal pH is lowered temporarily to 5.5 or below, preferably 4.7 or below and more preferably 3.5 or below. The sodium bicarbonate test described below (in the section captioned “the pH-Lowering Agent”) is indicative of the required acid amount.

The nature of series [3]: Oral bioavailability of sCTgly vs sCT-NH2, enteric coated capsules, dog model. Conditions: for Cmax: male, Beagle, read-out: Mean Cmax ± SEM; for Cmax / Mean AUC ± SERM: oral enteric coated capsule, dog plasma, adjusted to a 1 mg dose. Type of series: in vivo, Beagle dogs. The method, then:
A study was carried out in a dog model to compare the pharmacokinetic parameters of orally delivered glycine-extended sCT (sCTgly) with those of amidated sCT (sCT-NH2).
Eight adult male Beagle dogs, weighing between 12 and 16 kg, were used in this study. Dogs were fasted overnight prior to administration of the test peptide, but were allowed free access to water. A wash-out period of at least 1 week occurred between experiments for each dog. Each dog received an orally administered, enteric coated gelatin capsule that contained 1.11 mg of sCTgly in week 1 and 1.11 mg of sCT-NH2 in week 2. Prior to capsule administration, a 20-gauge intravenous (IV) catheter was inserted into a brachial vein for the collection of blood samples. Two pre-dose samples of 3 ml each were collected from the brachial vein.
After administration of the capsule, 3 ml blood samples were collected from the brachial vein at 15 minute intervals up to 240 minutes post-administration. Blood samples were collected into new heparinized Monovette sampling syringes. Samples were placed on ice before being centrifuged for 10 minutes at approximately 2750 rpm at 2-8° C. The plasma supernatant was transferred to color-coded microcentrifuge tubes labeled with the time point and stored frozen at −20° C. prior to analysis to determine the concentration of sCTgly or sCT-NH2.
The concentration of sCTgly in plasma was determined by radioimmunoassay with an RIA kit from Peninsula Laboratories. sCT-NH2 concentration in plasma was determined by a sandwich ELISA immunoassay using a kit from Diagnostic Systems Laboratories Inc. From the pharmacokinetic profile of sCTgly or sCT-NH2 in plasma, the parameters of Cmax (peak of plasma concentration in pg/ml) and AUC (Area under the Curve) were determined. All measured values were normalized for a 1 mg peptide dose for either of the two peptides.

Where only a bound is given, the exact number is not on record here.

In “in vivo”, `CC(C)C[C@H](NC(=O)CNC(=O)[C@H](Cc1ccc(O)cc1)NC(=O)[C@H](CO)NC(=O)[C@H](Cc1c[nH]c2ccccc12)NC(=O)[C@H](Cc1cnc[nH]1)NC(=O)[C@@H]1CCC(=O)N1)C(=O)N[C@@H](CCCN=C(N)N)C(=O)N1CCC[C@H]1C(=O)NCC(=O)O` [LHRH-COOH] had an AUC of 296 ng·h/mL, a Cmax of 654 ± 103 ng/mL, a level at 0.25 h of 654 ± 103 ng/mL and a level at 0.5 h of 391 ± 81 ng/mL. Besides, in the series “in vivo”, the level at 1 h is 163 ± 68 ng/mL, the level at 2 h came to 56 ± 19 ng/mL and the “time at which maximum concentration (Cmax) was detected in plasma” value is given as “five”.
Regarding `CC(C)C[C@H](NC(=O)CNC(=O)[C@H](Cc1ccc(O)cc1)NC(=O)[C@H](CO)NC(=O)[C@H](Cc1c[nH]c2ccccc12)NC(=O)[C@H](Cc1cnc[nH]1)NC(=O)[C@@H]1CCC(=O)N1)C(=O)N[C@@H](CCCNC(=N)N)C(=O)N1CCC[C@H]1C(=O)NCC(N)=O` [LHRH-NH2], in “in vivo”, the AUC is 1820 ng·h/mL, the highest level (Cmax) was 3280 ± 893 ng/mL, the level at 0.25 h was 3280 ± 893 ng/mL and the level at 0.5 h was found to be 2900 ± 612 ng/mL. For the same compound, in “in vivo”, the level at 1 h turned out to be 1280 ± 282 ng/mL, the level at 2 h is 382 ± 103 ng/mL, the “AUC relative to free acid form of LHRH” value is 6 times and the “amount detected in plasma relative to LHRH-COOH” value was 5 times. Moreover, the “time at which maximum concentration (Cmax) was detected in plasma” value in the series “in vivo” is “five”.
Consider `CC(C)C[C@H](NC(=O)[C@H](CCCCN)NC(=O)CNC(=O)[C@H](CC(C)C)NC(=O)[C@@H](NC(=O)[C@@H]1CSSC[C@H](N)C(=O)N[C@@H](CO)C(=O)N[C@@H](CC(N)=O)C(=O)N[C@@H](CC(C)C)C(=O)N[C@@H](CO)C(=O)N[C@@H]([C@@H](C)O)C(=O)N1)C(C)C)C(=O)N[C@@H](CO)C(=O)N[C@@H](CCC(N)=O)C(=O)N[C@@H](CCC(=O)O)C(=O)N[C@@H](CC(C)C)C(=O)N[C@@H](Cc1c[nH]cn1)C(=O)N[C@@H](CCCCN)C(=O)N[C@@H](CC(C)C)C(=O)N[C@@H](CCC(N)=O)C(=O)N[C@H](C(=O)N[C@@H](Cc1ccc(O)cc1)C(=O)N1CCC[C@H]1C(=O)N[C@@H](CCCNC(=N)N)C(=O)N[C@H](C(=O)N[C@@H](CC(N)=O)C(=O)N[C@H](C(=O)NCC(=O)N[C@@H](CO)C(=O)NCC(=O)N[C@H](C(=O)N1CCC[C@H]1C(N)=O)[C@@H](C)O)[C@@H](C)O)[C@@H](C)O)[C@@H](C)O` [sCT-NH2], for which, in series [1] (man), the “blood levels after injection at conventional dosages” value was “no detectable blood levels more than two hours after injection” and the “duration of beneficial effect on osteoclasts” value is given as “more than 24 hours”. In addition, the “peak levels at which proven effective against osteoporosis” value in series [1] (nasally administered, 200 International units) is at least 10 picograms per milliliter. In series [1] (patients), the “peak levels at which some patients report gastrointestinal distress” value is at least 200 picograms per milliliter. Also, the half-life in series [1] (subcutaneous administration in man) was 20 to 40 min. Also, the peak serum concentration entry in series [1] (subcutaneous administration, 100 International units) was “about 250 picograms per milliliter”. Also, the “Tmax for blood levels” value in series [2] lay within 5 to 15 min. Further, in series [3], the Cmax worked out at 3.2 ng/mL and the “Mean AUC ± SERM” value is on record as 148,000 ± 18,200 pg · min/ml. For the same compound, in series [3] (oral, dog), the “mean AUC relative to sCTgly” value came to 5.9 times and the “mean Cmax relative to sCTgly” value is listed as 6.6 times.
For the compound `CC(C)C[C@H](NC(=O)[C@H](CCCCN)NC(=O)CNC(=O)[C@H](CC(C)C)NC(=O)[C@@H](NC(=O)[C@@H]1CSSC[C@H](N)C(=O)N[C@@H](CO)C(=O)N[C@@H](CC(N)=O)C(=O)N[C@@H](CC(C)C)C(=O)N[C@@H](CO)C(=O)N[C@@H]([C@@H](C)O)C(=O)N1)C(C)C)C(=O)N[C@@H](CO)C(=O)N[C@@H](CCC(N)=O)C(=O)N[C@@H](CCC(=O)O)C(=O)N[C@@H](CC(C)C)C(=O)N[C@@H](Cc1c[nH]cn1)C(=O)N[C@@H](CCCCN)C(=O)N[C@@H](CC(C)C)C(=O)N[C@@H](CCC(N)=O)C(=O)N[C@H](C(=O)N[C@@H](Cc1ccc(O)cc1)C(=O)N1CCC[C@H]1C(=O)N[C@@H](CCCNC(=N)N)C(=O)N[C@H](C(=O)N[C@@H](CC(N)=O)C(=O)N[C@H](C(=O)NCC(=O)N[C@@H](CO)C(=O)NCC(=O)N[C@H](C(=O)N1CCC[C@H]1C(=O)NCC(=O)O)[C@@H](C)O)[C@@H](C)O)[C@@H](C)O)[C@@H](C)O` [sCTgly], in series [3], the maximum concentration (Cmax) turned out to be 0.485 ± 0.106 ng/mL and the “Mean AUC ± SERM” value is on record as 25,125 ± 5,525 pg · min/ml.

The term AUC denotes the area under the concentration-time curve, a measure of exposure. Read a high AUC as more exposure. What is called Cmax is the maximum level reached in the sampled fluid or tissue. By half-life is commonly meant how long it takes for the measured level to halve.

These data come from patent publication US8088734B2, “Oral delivery of peptides” (Unigene Laboratories Inc., priority 2003, dated 2012).
